# Data: US20250263424A1, “KRAS INHIBITORS” (Bristol-Myers Squibb Company, priority 2022, published 2025)
# Target: Recombinant GMPPNP-loaded KRAS G12C (KRAS-G12C(ON), active form) (Homo sapiens, UniProt P01116, G12C)
# Assay: KRAS G12C RAF Disruption Assay (HTRF)
# Format: biochemical
# Conditions: GMPPNP-loaded KRAS G12C 5 nM, GST-RAF1 RBD 9 nM, values given in μM, read-out: KRASG12C RAF Disruption Assay (IC50)
# Method in brief: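 GMPPNP-loaded KRAS G12C (5 nM) preincubated with compound 20 min at room temperature in Tris pH 7.5 buffer with MgCl2, DTT and BSA. GST-RAF1 RBD (9 nM) then added for 20 min, and SA-Tb (0.25 nM) for 3 h. HTRF 520/495 ratio read; IC50 taken from the dose-response curve.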
# Sequence of Recombinant GMPPNP-loaded KRAS G12C (KRAS-G12C(ON), active form) (P01116 1-188 isoform P01116-2 G12C): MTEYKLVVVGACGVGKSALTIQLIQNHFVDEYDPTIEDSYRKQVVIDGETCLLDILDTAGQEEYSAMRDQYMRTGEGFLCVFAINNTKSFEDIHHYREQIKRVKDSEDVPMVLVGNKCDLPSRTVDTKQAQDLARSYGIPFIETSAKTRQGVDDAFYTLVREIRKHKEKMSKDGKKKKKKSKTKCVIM
compound,measurement,value
"Cc1cc(N)nc(-c2c(Cl)cc3c(N4CC5CCC4CN5C(=O)/C(F)=C/c4ccccn4)nc(OC[C@@H]4CCCN4C)nc3c2F)c1C(F)(F)F (stereo partly drawn) [Example 6, (Z)-1-(5-((7M)-7-(6-amino-4-methyl-3-(trifluoromethyl)pyridin-2-yl)-6-chloro-8-fluoro-2-(((S)-1-methylpyrrolidin-2-yl)methoxy)quinazolin-4-yl)-2,5-diazabicyclo[2.2.2]octan-2-yl)-2-fluoro-3-(pyridin-2-yl)prop-2-en-1-one]",IC50,4.9 µM
